The results in this text go back to patent publication US11970463B2, “Compounds and their use” (ASTRAZENECA AB, priority 2021, dated 2024).

Molecules are shown by their SMILES. pEC50, pIC50: −log10 of the molar value. Values after ≈ are worked out from the molar mass of the structure shown. Where two headings read alike, the source gives them in different places.

The target of series [1] is T1, Human NLRP3 (Homo sapiens (Human), UniProt Q96P20).
The next series is described as follows: Solubility (Test E). In kind it is physicochemical.
Series [2] addresses T1, Human NLRP3. As to the kind of experiment: Human NLRP3 speck formation assay (Test A), nigericin triggered ASC-speck formation in ASC-GFP reporter monocytes.
The nature of series [3]: Solubility (Test F), McIlvaine buffer pH 6.5. In kind it is physicochemical. The conditions noted are these: McIlvaine buffer pH 6.5, 25° C., 24 to 72 h, theoretical maximum 200 μM; for solubility: disodium hydrogenphosphate-citric acid (McIlvaine) buffer, 25 °C, pH 6.5, aqueous buffer, thermodynamic from solid.
Series [4] deals with T1, Human NLRP3. The source holds these as a separate data set.
Where [5] appears, read: Test C IC50, IL-1β release, THP-1 cells, LPS 2 μg/mL 24 h, BzATP 1 mM.

T1 sequence (Q96P20 whole entry): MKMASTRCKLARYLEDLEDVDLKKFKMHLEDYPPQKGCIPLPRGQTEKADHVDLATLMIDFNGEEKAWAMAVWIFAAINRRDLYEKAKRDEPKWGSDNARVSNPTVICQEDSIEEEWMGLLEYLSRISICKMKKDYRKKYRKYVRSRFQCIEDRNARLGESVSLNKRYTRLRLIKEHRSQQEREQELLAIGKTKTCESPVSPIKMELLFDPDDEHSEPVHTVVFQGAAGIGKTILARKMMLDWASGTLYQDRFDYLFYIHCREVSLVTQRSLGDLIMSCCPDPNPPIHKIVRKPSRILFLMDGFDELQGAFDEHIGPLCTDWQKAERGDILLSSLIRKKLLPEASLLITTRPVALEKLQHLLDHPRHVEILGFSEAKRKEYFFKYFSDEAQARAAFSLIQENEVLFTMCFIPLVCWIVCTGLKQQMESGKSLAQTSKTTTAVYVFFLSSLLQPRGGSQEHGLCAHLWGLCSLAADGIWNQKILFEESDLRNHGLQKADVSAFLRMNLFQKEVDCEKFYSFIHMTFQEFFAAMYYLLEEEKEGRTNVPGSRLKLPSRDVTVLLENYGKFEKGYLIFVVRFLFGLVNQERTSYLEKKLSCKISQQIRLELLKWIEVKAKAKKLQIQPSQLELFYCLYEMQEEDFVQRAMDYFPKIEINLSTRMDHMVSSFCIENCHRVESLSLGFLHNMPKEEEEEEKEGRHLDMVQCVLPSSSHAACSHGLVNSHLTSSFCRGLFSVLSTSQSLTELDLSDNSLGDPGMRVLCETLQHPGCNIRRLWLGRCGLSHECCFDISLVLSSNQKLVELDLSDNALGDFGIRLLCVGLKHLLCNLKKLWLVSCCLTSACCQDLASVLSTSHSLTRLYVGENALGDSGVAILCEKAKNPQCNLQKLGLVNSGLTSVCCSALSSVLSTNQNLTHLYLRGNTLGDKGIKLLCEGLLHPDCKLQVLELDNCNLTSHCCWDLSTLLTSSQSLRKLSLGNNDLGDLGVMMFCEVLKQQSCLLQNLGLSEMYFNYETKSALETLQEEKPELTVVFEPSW

Regarding `Oc1cc(C(F)(F)F)ccc1-c1nnc(N[C@@H]2CCCCC[C@H]2O)c2ccccc12` (racemic) [Example 27, rac-(1R,2R)-2-[[4-[2-hydroxy-4-(trifluoromethyl)phenyl]phthalazin-1-yl]amino]cycloheptanol], on Human NLRP3 [1] (setting [5]), the pIC50 was 7.47. Also, the solubility in the series “Solubility (Test E)” was found to be 9 µM (≈ 3.76 µg/mL); in series [3], 2.1 µg/mL (≈ 5.03 µM). The same compound had a pEC50 on Human NLRP3 [2] of 6.25.
For the compound `Oc1cc(C(F)(F)F)ccc1-c1nnc(N[C@H]2CC[C@@H](O)C2)c2ccccc12` (single isomer, unassigned) [Example 35], the pIC50 on Human NLRP3 [1] (setting [5]) was 7.16; against Human NLRP3 [4], 7.15. At Human NLRP3 [2], this compound had a pEC50 of 6.67. For the same compound, the “Test F Solubility” value in series [3] is 10.9 µg/mL.
`Cc1ccc(O)c(-c2nnc(NC[C@H](O)CO)c3ccccc23)c1` [Example 13, (2S)-3-[[4-(2-hydroxy-5-methyl-phenyl)phthalazin-1-yl]amino]propane-1,2-diol] had a pIC50 at Human NLRP3 [1] (setting [5]) of under 5.00. In series [3], this compound registered a solubility of over 65.1 µg/mL.
For the compound `Cc1ccc2c(NC[C@H](O)CO)nnc(-c3ccc(C(F)(F)F)cc3O)c2c1` [Example 15, (2S)-3-[[4-[2-hydroxy-4-(trifluoromethyl)phenyl]-6-methyl-phthalazin-1-yl]amino]propane-1,2-diol], on Human NLRP3 [1] (setting [5]), the pIC50 is 7.59. Moreover, the solubility stood at 155 µM (≈ 61 µg/mL) in “Solubility (Test E)” and 14.7 µg/mL (≈ 37.4 µM) in series [3]. At Human NLRP3 [2], this compound had a pEC50 of 6.66.
For the compound `Oc1cc(C(F)(F)F)ccc1-c1nnc(N[C@H]2CC[C@H](O)C2)c2ccccc12` [Example 17, 2-[4-[[(1S,3S)-3-hydroxycyclopentyl]amino]phthalazin-1-yl]-5-(trifluoromethyl)phenol], the pIC50 on Human NLRP3 [1] (setting [5]) is 7.07; on Human NLRP3 [4], 6.77. Further, on Human NLRP3 [2], the pEC50 was 6.54. The compound further came in with a solubility in series [3] of 27.5 µg/mL (≈ 70.6 µM).
Regarding `CS(=O)(=O)c1ccc(-c2nnc(N[C@@H]3CC[C@@H](O)C3)c3ccccc23)c(O)c1` [Example 18, 2-[4-[[(1R,3R)-3-hydroxycyclopentyl]amino]phthalazin-1-yl]-5-methylsulfonyl-phenol], the pIC50 at Human NLRP3 [1] (setting [5]) is 6.13. In series [3], this compound gave a solubility of over 79.9 µg/mL.
In turn, `Oc1cc(C(F)(F)F)ccc1-c1nnc(N[C@H]2CCC[C@@H]2O)c2ccccc12` [Example 22, 2-[4-[[(1S,2S)-2-hydroxycyclopentyl]amino]phthalazin-1-yl]-5-(trifluoromethyl)phenol] showed a pIC50 against Human NLRP3 [1] (setting [5]) of 6.73. For the same compound, the solubility in the series “Solubility (Test E)” came out at 172 µM (≈ 67 µg/mL); in series [3], 9.2 µg/mL (≈ 23.6 µM). This compound also showed a pEC50 at Human NLRP3 [2] of 5.62.
The compound `Oc1cc(C(F)(F)F)ccc1-c1nnc(N[C@H]2CCCC[C@@H]2O)c2ccccc12` [Example 26, 2-[4-[[(1S,2S)-2-hydroxycyclohexyl]amino]phthalazin-1-yl]-5-(trifluoromethyl)phenol] gave a pIC50 on Human NLRP3 [1] (setting [5]) of 6.22. Besides, the solubility was found to be 148 µM (≈ 59.7 µg/mL) in “Solubility (Test E)” and 8.3 µg/mL (≈ 20.6 µM) in series [3]. The pEC50 on Human NLRP3 [2] was 5.70.
With `Oc1cc(C(F)(F)F)ccc1-c1nnc(N[C@H]2C[C@H](O)C2)c2ccccc12` [Example 32, 2-(4-(((1r,3r)-3-hydroxycyclobutyl)amino)phthalazin-1-yl)-5-(trifluoromethyl)phenol], the results for the pIC50 on Human NLRP3 [1] (setting [5]) and on Human NLRP3 [4] were 7.20 and 6.85, respectively. This compound gave a pEC50 on Human NLRP3 [2] of 6.61. Moreover, the solubility in series [3] came to 1.4 µg/mL (≈ 3.73 µM).
The like results for `Oc1cc(C(F)(F)F)ccc1-c1nnc(N[C@H]2C[C@@H](O)C2)c2ccccc12` [Example 33, 2-(4-(((1s,3s)-3-hydroxycyclobutyl)amino)phthalazin-1-yl)-5-(trifluoromethyl)phenol] were, in that order, 7.34, 6.91, 6.69 and 2.6 µg/mL (≈ 6.93 µM).
Consider `C[C@]1(O)C[C@@H](Nc2nnc(-c3c(O)cccc3F)c3ccccc23)C1` [Example 36, 3-fluoro-2-(4-(((1s,3s)-3-hydroxy-3-methylcyclobutyl)amino)phthalazin-1-yl)phenol], for which, on Human NLRP3 [1], the pIC50 is 6.01. Moreover, in series [3], the solubility is 43 µg/mL (≈ 127 µM).
At Human NLRP3 [1] (setting [5]), `Oc1cccc(F)c1-c1nnc(N[C@@H]2CCC[C@H](O)C2)c2cnccc12` [Example 47, 3-fluoro-2-[4-[[(1R,3S)-3-hydroxycyclohexyl]amino]pyrido[3,4-d]pyridazin-1-yl]phenol] gave a negative-log IC50 (pIC50) of 7.17. The compound also showed a solubility in series [3] of over 70.9 µg/mL.
For `CCc1ccc(-c2nnc(N[C@@H]3CCC[C@H](O)C3)c3cnccc23)c(O)c1` [Example 51, 5-ethyl-2-[4-[[(1R,3S)-3-hydroxycyclohexyl]amino]pyrido[3,4-d]pyridazin-1-yl]phenol], on Human NLRP3 [1] (setting [5]), the pIC50 was 8.40. In series [3], this compound showed a solubility of over 72.9 µg/mL.
On to `C[C@]1(O)C[C@@H](Nc2nnc(-c3ccc(OC(F)(F)F)cc3O)c3ccncc23)C1` [Example 63, 2-(4-(((1s,3s)-3-hydroxy-3-methylcyclobutyl)amino)pyrido[3,4-d]pyridazin-1-yl)-5-(trifluoromethoxy)phenol], for which, at Human NLRP3 [1], the negative-log IC50 (pIC50) is 8.10. In series [3], this compound yielded a solubility of 0.8 µg/mL (≈ 1.97 µM).
For `C[C@]1(O)C[C@@H](Nc2nnc(-c3c(O)cccc3F)c3ccncc23)C1` [Example 64, 3-fluoro-2-(4-(((1s,3s)-3-hydroxy-3-methylcyclobutyl)amino)pyrido[3,4-d]pyridazin-1-yl)phenol], in that order: 6.95 and over 68.1 µg/mL.
For `C[C@]1(O)C[C@@H](Nc2nnc(-c3cc(F)c(F)cc3O)c3ccncc23)C1` [Example 66, 4,5-difluoro-2-(4-(((1s,3s)-3-hydroxy-3-methylcyclobutyl)amino)pyrido[3,4-d]pyridazin-1-yl)phenol], in that order: 6.24 and 3.6 µg/mL (≈ 10 µM).
For the compound `C[C@]1(O)C[C@@H](Nc2nnc(-c3ccc(Cl)cc3O)c3ccncc23)C1` [Example 68, 5-chloro-2-(4-(((1s,3s)-3-hydroxy-3-methylcyclobutyl)amino)pyrido[3,4-d]pyridazin-1-yl)phenol], the pIC50 at Human NLRP3 [1] was 8.70. The solubility in the series “Solubility (Test E)” stood at 44 µM (≈ 15.7 µg/mL). The same compound gave a pEC50 on Human NLRP3 [2] of 7.72.
For `CC(C)(O)CNc1nnc(-c2ccc(Cl)cc2O)c2ccncc12` [Example 71, 5-chloro-2-[4-[(2-hydroxy-2-methyl-propyl)amino]pyrido[3,4-d]pyridazin-1-yl]phenol], on Human NLRP3 [1] (setting [5]), the pIC50 was 7.85. In series [3], the solubility worked out at 21.9 µg/mL (≈ 63.5 µM).
In the case of `CC(C)(O)CNc1nnc(-c2ccc(OC(F)(F)F)cc2O)c2ccncc12` [Example 72, 2-[4-[(2-hydroxy-2-methyl-propyl)amino]pyrido[3,4-d]pyridazin-1-yl]-5-(trifluoromethoxy)phenol], the pIC50 at Human NLRP3 [1] (setting [5]) is 7.66. In series [3], this compound came in with a solubility of 5.8 µg/mL (≈ 14.7 µM).
On Human NLRP3 [2], `Oc1cccc(F)c1-c1nnc(N[C@@H]2CCCC[C@H]2O)c2ccncc12` [Example 77, 3-fluoro-2-(1-(((1R,2R)-2-hydroxycyclohexyl)amino)pyrido[3,4-d]pyridazin-4-yl)phenol] showed a pEC50 of 5.53.
In “Solubility (Test E)”, `Oc1cc(F)ccc1-c1nnc(N[C@@H]2CCCC[C@H]2O)c2ccncc12` [Example 78, 5-fluoro-2-(1-(((1R,2R)-2-hydroxycyclohexyl)amino)pyrido[3,4-d]pyridazin-4-yl)phenol] returned a solubility of 958 µM (≈ 340 µg/mL). Moreover, the pEC50 at Human NLRP3 [2] is 5.94.
`Oc1cc(C(F)(F)F)ccc1-c1nnc(N[C@H]2CCC[C@@H](O)C2)c2cnccc12` [Example 82, 2-[4-[[(1S,3R)-3-hydroxycyclohexyl]amino]pyrido[3,4-d]pyridazin-1-yl]-5-(trifluoromethyl)phenol]: the solubility was found to be 34 µM (≈ 13.7 µg/mL) in the series “Solubility (Test E)” and 9.4 µg/mL (≈ 23.2 µM) in series [3].
Compound `C[C@]1(O)C[C@H](Nc2nnc(-c3ccc(C(F)(F)F)cc3O)c3ccncc23)C1` [Example 84, 2-(4-(((1r,3r)-3-hydroxy-3-methylcyclobutyl)amino)pyrido[3,4-d]pyridazin-1-yl)-5-(trifluoromethyl)phenol] showed a pIC50 on Human NLRP3 [1] (setting [5]) of 7.57. Further, the solubility in the series “Solubility (Test E)” was 20 µM (≈ 7.81 µg/mL); in series [3] it was over 78.1 µg/mL. The compound also gave a pEC50 on Human NLRP3 [2] of 7.06.
`Oc1cc(F)ccc1-c1nnc(N[C@@H]2CC[C@@H](O)C2)c2cnccc12` [Example 85, 5-fluoro-2-(4-(((1R,3R)-3-hydroxycyclopentyl)amino)pyrido[3,4-d]pyridazin-1-yl)phenol]: the solubility in “Solubility (Test E)” was determined as 68 µM (≈ 23.1 µg/mL). Moreover, the pEC50 at Human NLRP3 [2] was 6.32.
The compound `Oc1cccc(F)c1-c1nnc(N[C@@H]2CC[C@@H](O)C2)c2ccncc12` [Example 86, 3-fluoro-2-(1-(((1R,3R)-3-hydroxycyclopentyl)amino)pyrido[3,4-d]pyridazin-4-yl)phenol] gave a pEC50 on Human NLRP3 [2] of 5.21.
The compound `Oc1cccc(F)c1-c1nnc(N[C@@H]2CC[C@H](O)C2)c2ccncc12` [Example 87, 3-fluoro-2-(1-(((1R,3S)-3-hydroxycyclopentyl)amino)pyrido[3,4-d]pyridazin-4-yl)phenol] came in with a solubility in “Solubility (Test E)” of 25 µM (≈ 8.51 µg/mL). On Human NLRP3 [2], this compound gave a pEC50 of 5.21.
Turning to `C[C@]1(O)C[C@@H](Nc2nnc(-c3c(O)cccc3F)c3cccnc23)C1` [Example 90, 3-fluoro-2-(8-(((1s,3s)-3-hydroxy-3-methylcyclobutyl)amino)pyrido[2,3-d]pyridazin-5-yl)phenol], the pIC50 at Human NLRP3 [1] is 6.26. The solubility in series [3] was over 68.1 µg/mL.
On to `Cc1ccc2c(-c3ccc(C(F)(F)F)cc3O)nnc(N[C@@H]3CCC[C@H](O)C3)c2n1` [Example 91, 2-[8-[[(1R,3S)-3-hydroxycyclohexyl]amino]-2-methyl-pyrido[2,3-d]pyridazin-5-yl]-5-(trifluoromethyl)phenol], for which the pIC50 on Human NLRP3 [1] (setting [5]) was 8.00. The compound also yielded a solubility in series [3] of 0.5 µg/mL (≈ 1.19 µM).

The pIC50 is the negative decadic logarithm of the IC50, by convention in mol/L. A high value points to a small IC50. By solubility is commonly meant how much of the substance goes into solution per volume. The low end stands for a poorly soluble substance, the high end for a readily soluble substance. For orientation: pEC50 means the negative decadic logarithm of the EC50, by convention in mol/L. Read a low pEC50 as a high EC50.
